In patent US10501453B2, “Benzothiazole or benzoxazole compounds as SUMO activators” (Icahn School of Medicine at Mount Sinai, priority 2012, dated 2019):

Key:
[1] = test system: SERCA2a; assay: SERCA2a SUMOylation assay in HEK-293 cells (immunoprecipitation/immunoblotting); format: cell-based
Text: The following antibodies were used for immunoblotting and immunoprecipitation (IP): polyclonal anti-SERCA2a (21th century Biochem Inc.), monoclonal anti-GAPDH (Sigma-Aldrich, catalog no. G8795), monoclonal anti-SUMO 1 (Cell Signaling Technology Inc., catalog no. 4930), anti-mouse horseradish peroxidase (HRP) (Pierce Biotechnology Inc., catalog no. 32430), and anti-rabbit HRP (Pierce Biotechnology Inc., catalog no. 32460). YFP-tagged SUMO1, pcDNA3.0-SERCA2a, and HA-tagged Ubc9 plasmids were used for the transfection. The plasmid DNA was amplified in the Escherichia coli strain DH5a and extracted by using a commercial purification kit (Qiagen, catalog no. 12263). Purified plasmid was resuspended in sterile TE buffer (10 mM Tris-HCl and 1 mM EDTA, pH 7.6). Only the preparation highest purity (A260/A280>1.8) was used for transfection. 1 μg of each plasmid was used for transfection. HEK-293 cells (American Type Culture Collection, catalog no. CRL-1873) were grown at 37° C. and under a 5% CO2 humidified atmosphere in Dulbecco's modified Eagle's medium (DMEM, Cellgro, catalog no. 10-0 13-CM) containing 10% fetal bovine serum (SAFC Bioscience, catalog no. 12107) and 100 i.u of penicillin/ml and 100 μg of streptomycin/ml. HEK-293 cells were seeded at a density of 3-5×10^5 cells per 60 mm culture dish in DMEM. The cells were transiently transfected using Lipofectamine 2000 (Invitrogen, catalog no. 11668) with indicated expression plasmids. After 24 hours, the cells were treated with either small molecules or dimethyl sulfoxide (DMSO, Sigma-Aldrich, catalog no. D2650).
Each compound was added at 10 μM. DMSO was used as a control. After 24 hours at 37° C., SERCA2a SUMOylation and functional analysis were determined.
Equal amounts of protein from either small molecule treated or DMSO treated cells or immunoprecipitates were resolved by 7.5% SDS-PAGE and transferred to nitrocellulose membranes (Bio-Rad, catalog no. 162-0112). The membranes were blocked for 1 hour at room temperature with 5% non-fat milk (Cell Signaling Technology Inc., catalog no. 9999) in TBST (10 mM Tris-HCl, 150 mM NaCl, and 0.05% tween-20, pH 8.0). The blots were incubated with specific primary antibodies at 4° C. for overnight. The blots were then washed five times for 10 minutes each with TBST and incubated for 1 hour with HRP-conjugated secondary antibodies in TBST with 5% non-fat milk. After five times TBST washes, the protein bands were visualized with enhanced chemiluminescence (Pierce Biotechnology Inc., catalog no. 32132) and exposed to x-ray film (Denville Scientific Inc., catalog no. E3012). GAPDH expression provided an internal control.
Post-transfection (48 hours), the HEK-293 cells were rinsed twice with phosphate-buffered saline (PBS, Cellgro, catalog no. 21-040-CM) and lysed in 1% Nonidet P-40 lysis buffer (Boston Bioproducts, catalog no. BP-119) with 10 mM N-ethylmaleimide (NEM, Sigma-Aldrich, catalog no. N3876) and […] inhibitor cocktail (Complete Mini Tablet, Roche Applied Science, catalog no. 11836153001). 2 mg of protein were mixed with the anti-SERCA2a antibodies for overnight at 4° C. in lysis buffer. Pre-washed protein A-Separose beads (Pierce Biotechnology Inc., catalog no. 20333) was added to each sample and incubated 1 hour at 4° C. with gentle rocking. Immunocomplexes were washed with lysis buffer three times and precipitated by centrifugation at 12000×g for 10 seconds. The immunocomplexes were resuspended in SDS sample buffer and subjected to immunoblotting. Controls for the immunoprecipitations were performed using an anti-rabbit IgG equal to that of the primary precipitating antibody. Ten percent of whole cell lysates used in the immunoprecipitation was loaded for subsequent immunoblotting.
The ability of the Example compound to SUMOylate SERCA2a was examined using an in vitro system in HEK 293 cells where both SERCA2a and SUMO 1 are expressed. […]

[2] = test system: adult rat ventricular myocytes (ARVMs); assay: Cell shortening/re-lengthening and calcium transient of ARVMs (IonOptix); format: cell-based

For `COc1ccc(-c2nnc(Nc3nc4c(OC)cccc4s3)o2)cc1` [Example 1, N-(4-methoxybenzo[d]thiazol-2-yl)-5-(4-methoxyphenyl)-1,3,4-oxadiazol-2-amine], the “SERCA2a SUMOylation in HEK 293 cells” value [1] was “increases SUMOylation of SERCA2a in a dose dependent manner”, the “Tau value (dose response)” value ([2]; 0.1 μM) was 1.3 ± 0.0 ms and the “Tau value (dose response)” value ([2]; 1 μM) was 1300 ± 100 ms. The “cell contractility (peak shortening), dose response” value ([2]; concentration dependent manner, versus DMSO) was “significantly increased cell contractility”.
